# Activity calls are given as the source filed them. The rule behind the calls is not given here.
# Columns and labels:
# [1] = system: Mucor circinelloides; assay: Antifungal activity against Mucor circinelloides M5 strain assessed as reduction in spore germination at 100 ug/ml relative to control; type: functional; set-up: scale not given: the % may be the effect or the level left; details: dose 100 µg/ml
# [2] = system: Mucor circinelloides; assay: Antifungal activity against Mucor circinelloides R7B wild type strain assessed as reduction in spore germination at 100 ug/ml relative to control; type: functional; set-up: scale not given: the % may be the effect or the level left; details: dose 100 µg/ml
# [3] = system: Mucor circinelloides; assay: Antifungal activity against Mucor circinelloides R7B wild type strain assessed as reduction in spore germination at 50 ug/ml relative to control; type: functional; set-up: scale not given: the % may be the effect or the level left; details: dose 50 µg/ml
# [4] = system: Mucor circinelloides; assay: Antifungal activity against Mucor circinelloides M5 strain assessed as reduction in spore germination at 25 ug/ml relative to control; type: functional; set-up: scale not given: the % may be the effect or the level left; details: dose 25 µg/ml
# [5] = system: Mucor circinelloides; assay: Antifungal activity against Mucor circinelloides R7B wild type strain assessed as reduction in spore germination at 150 ug/ml relative to control; type: functional; set-up: scale not given: the % may be the effect or the level left; details: dose 150 µg/ml
# [6] = system: Mucor circinelloides; assay: Antifungal activity against Mucor circinelloides M5 strain assessed as reduction in spore germination at 50 ug/ml relative to control; type: functional; set-up: scale not given: the % may be the effect or the level left; details: dose 50 µg/ml
# [7] = system: Mucor circinelloides; assay: Antifungal activity against Mucor circinelloides M5 strain assessed as reduction in spore germination at 150 ug/ml relative to control; type: functional; set-up: scale not given: the % may be the effect or the level left; details: dose 150 µg/ml
# [8] = system: Mucor circinelloides; assay: Antifungal activity against Mucor circinelloides R7B wild type strain assessed as reduction in spore germination at 25 ug/ml relative to control; type: functional; set-up: scale not given: the % may be the effect or the level left; details: dose 25 µg/ml
# [9] = system: Trichophyton rubrum; assay: Antifungal activity against Trichophyton rubrum clinical isolate 2 assessed as reduction in fungal growth by broth dilution method; type: functional
# [10] = biological target: T1, Lanosterol 14-alpha demethylase (Mus musculus, UniProt Q8K0C4); assay: Inhibition of CYP51 in mouse NIH/3T3 cells assessed as specific enzymatic activity at 50 ug/ml incubated for 48 hrs by ELISA analysis; type: ADME, cell-based; details: nih/3t3, 48 h, dose 50 µg/ml
# T1 sequence (Q8K0C4 whole entry): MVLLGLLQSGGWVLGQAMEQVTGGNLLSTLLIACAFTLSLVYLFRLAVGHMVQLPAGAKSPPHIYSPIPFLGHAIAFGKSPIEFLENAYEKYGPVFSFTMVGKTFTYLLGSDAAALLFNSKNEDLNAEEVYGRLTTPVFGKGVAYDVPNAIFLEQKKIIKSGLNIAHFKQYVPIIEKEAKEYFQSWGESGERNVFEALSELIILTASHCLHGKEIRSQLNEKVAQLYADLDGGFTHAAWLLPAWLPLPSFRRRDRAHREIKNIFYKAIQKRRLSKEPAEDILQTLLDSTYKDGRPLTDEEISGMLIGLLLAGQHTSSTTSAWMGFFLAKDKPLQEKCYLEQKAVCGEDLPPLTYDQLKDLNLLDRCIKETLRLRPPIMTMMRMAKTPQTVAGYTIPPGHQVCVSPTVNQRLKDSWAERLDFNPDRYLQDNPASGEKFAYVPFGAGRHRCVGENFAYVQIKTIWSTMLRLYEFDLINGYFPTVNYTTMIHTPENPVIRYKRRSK
# [11] = system: Mucor circinelloides; assay: Antifungal activity against Mucor circinelloides R7B wild type strain assessed as few mycelia with several spores at 50 ug/ml by microscopic analysis; type: functional, organism-based; details: dose 50.0 µg/ml
# [12] = system: Microsporum canis; assay: Antifungal activity against Microsporum canis clinical isolate 3 assessed as reduction in fungal growth by broth dilution method; type: functional
# [13] = system: Aspergillus nidulans; assay: Antifungal activity against Aspergillus nidulans clinical isolate 2 assessed as reduction in fungal growth by broth dilution method; type: functional
# [14] = system: Aspergillus nidulans; assay: Antifungal activity against Aspergillus nidulans clinical isolate 1 assessed as reduction in fungal growth by broth dilution method; type: functional
# [15] = system: Nannizzia gypsea; assay: Antifungal activity against Microsporum gypseum clinical isolate 1 assessed as reduction in fungal growth by broth dilution method; type: functional
# [16] = Cytotoxicity against mouse NIH/3T3 cells assessed as reduction in cell viability at 50 ug/ml incubated for 48 hrs by MTT assay (reference value: 93.8 +/- 4.9 %); type: toxicity, cell-based, NIH3T3; details: at 50 µg/mL, read-out: Activity
# [17] = Cytotoxicity against mouse NIH/3T3 cells assessed as reduction in cell viability at 100 ug/ml incubated for 48 hrs by MTT assay (reference value: 93.8 +/- 4.9 %); type: toxicity, cell-based, NIH3T3; details: at 100 µg/mL, read-out: Activity
# [18] = Cytotoxicity against mouse NIH/3T3 cells assessed as reduction in cell viability at 150 ug/ml incubated for 48 hrs by MTT assay (reference value: 93.8 +/- 4.9 %); type: toxicity, cell-based, NIH3T3; details: at 150 µg/mL, read-out: Activity
# [19] = system: Nannizzia gypsea; assay: Antifungal activity against Microsporum gypseum clinical isolate 2 assessed as reduction in fungal growth by broth dilution method; type: functional
# [20] = system: Trichophyton mentagrophytes; assay: Antifungal activity against Trichophyton mentagrophytes clinical isolate 1 assessed as reduction in fungal growth by broth dilution method; type: functional
# [21] = biological target: T1, Lanosterol 14-alpha demethylase; assay: Inhibition of CYP51 in mouse NIH/3T3 cells assessed as specific enzymatic activity at 200 ug/ml incubated for 48 hrs by ELISA analysis; type: ADME, cell-based; details: nih/3t3, 48 h, dose 200 µg/ml
# [22] = system: Aspergillus niger; assay: Antifungal activity against Aspergillus niger clinical isolate 1 assessed as reduction in fungal growth by broth dilution method; type: functional
# [23] = system: Mucor circinelloides; assay: Antifungal activity against Mucor circinelloides R7B wild type strain assessed as non-germinated spores and undifferentiated hyphae at 50 ug/ml by microscopic analysis; type: functional, organism-based; details: dose 50.0 µg/ml
# [24] = system: Mucor circinelloides; assay: Antifungal activity against Mucor circinelloides M5 strain assessed as non-germinated spores and undifferentiated hyphae at 50 ug/ml by microscopic analysis; type: functional, organism-based; details: dose 50.0 µg/ml
# [25] = Cytotoxicity against mouse NIH/3T3 cells assessed as reduction in cell viability at 25 ug/ml incubated for 48 hrs by MTT assay (reference value: 93.8 +/- 4.9 %); type: toxicity, cell-based, NIH3T3; details: at 25 µg/mL, read-out: Activity
# [26] = Cytotoxicity against mouse NIH/3T3 cells assessed as reduction in cell viability at 200 ug/ml incubated for 48 hrs by MTT assay (reference value: 93.8 +/- 4.9 %); type: toxicity, cell-based, NIH3T3; details: at 200 µg/mL, read-out: Activity
# [27] = biological target: T1, Lanosterol 14-alpha demethylase; assay: Inhibition of CYP51 in mouse NIH/3T3 cells assessed as specific enzymatic activity at 25 ug/ml incubated for 48 hrs by ELISA analysis; type: ADME, cell-based; details: nih/3t3, 48 h, dose 25 µg/ml
# [28] = biological target: T1, Lanosterol 14-alpha demethylase; assay: Inhibition of CYP51 in mouse NIH/3T3 cells assessed as specific enzymatic activity at 150 ug/ml incubated for 48 hrs by ELISA analysis; type: ADME, cell-based; details: nih/3t3, 48 h, dose 150 µg/ml
# [29] = system: Trichophyton mentagrophytes; assay: Antifungal activity against Trichophyton mentagrophytes clinical isolate 2 assessed as reduction in fungal growth by broth dilution method; type: functional
# [30] = system: Mucor circinelloides; assay: Antifungal activity against Mucor circinelloides R7B wild type strain assessed as non-germinated spores at 100 to 150 ug/ml by microscopic analysis; type: functional, organism-based; details: dose 100-150 µg/ml
# [31] = system: Mucor circinelloides; assay: Antifungal activity against Mucor circinelloides R7B wild type strain assessed as reduction in fungal growth by broth dilution method; type: functional
# [32] = biological target: T1, Lanosterol 14-alpha demethylase; assay: Inhibition of CYP51 in mouse NIH/3T3 cells assessed as specific enzymatic activity at 100 ug/ml incubated for 48 hrs by ELISA analysis; type: ADME, cell-based; details: nih/3t3, 48 h, dose 100 µg/ml
# [33] = system: Mucor circinelloides; assay: Antifungal activity against Mucor circinelloides M5 strain assessed as few mycelia with several spores at 50 ug/ml by microscopic analysis; type: functional, organism-based; details: dose 50.0 µg/ml
# [34] = system: Microsporum canis; assay: Antifungal activity against Microsporum canis clinical isolate 2 assessed as reduction in fungal growth by broth dilution method; type: functional
# [35] = system: Microsporum canis; assay: Antifungal activity against Microsporum canis clinical isolate 1 assessed as reduction in fungal growth by broth dilution method; type: functional
# [36] = system: Mucor circinelloides; assay: Antifungal activity against Mucor circinelloides M5 strain assessed as reduction in fungal growth by broth dilution method; type: functional
# [37] = system: Trichophyton rubrum; assay: Antifungal activity against Trichophyton rubrum clinical isolate 1 assessed as reduction in fungal growth by broth dilution method; type: functional
# [38] = system: Mucor circinelloides; assay: Antifungal activity against Mucor circinelloides R7B wild type strain assessed as complete absence of mycelia at 100 to 150 ug/ml by microscopic analysis; type: functional, organism-based; details: dose 100-150 µg/ml
# [39] = system: Epidermophyton floccosum; assay: Antifungal activity against Epidermophyton floccosum clinical isolate 1 assessed as reduction in fungal growth by broth dilution method; type: functional
# [40] = system: Mucor circinelloides; assay: Antifungal activity against Mucor circinelloides M5 strain assessed as non-germinated spores at 100 to 150 ug/ml by microscopic analysis; type: functional, organism-based; details: dose 100-150 µg/ml
# [41] = system: Trichophyton mentagrophytes; assay: Antifungal activity against Trichophyton mentagrophytes clinical isolate 3 assessed as reduction in fungal growth by broth dilution method; type: functional
# [42] = system: Mucor circinelloides; assay: Antifungal activity against Mucor circinelloides M5 strain assessed as complete absence of mycelia at 100 to 150 ug/ml by microscopic analysis; type: functional, organism-based; details: dose 100-150 µg/ml
compound,measurement,setting,value
O=[N+]([O-])c1ccc(Oc2cc(-c3cccc(Cl)c3)nc3ccccc23)cc1,Activity,[1],21.9%
same,Activity,[2],32.7%
COc1cc(-c2cc(F)cc(F)c2)nc2ccccc12,Activity,[1],29.7%
same,Activity,[2],32.8%
COc1cc(-c2ccc(F)cc2)nc2ccccc12,Activity,[1],20.6%
same,Activity,[2],17.1%
same,Activity,[3],60.3%
same,Activity,[4],78.4%
same,Activity,[5],12.6%
same,Activity,[6],47.9%
same,Activity,[7],14.9%
same,Activity,[8],73.1%
COc1cc(-c2cccc(C(F)(F)F)c2)nc2ccccc12,Activity,[1],89.7%
same,Activity,[2],88.9%
Cc1cc(C)cc(-c2ccc3ccccc3n2)c1,Activity,[1],87.6%
same,Activity,[2],84.9%
FC(F)(F)c1ccc(Oc2cc(-c3cccc(Cl)c3)nc3ccccc23)cc1,Activity,[1],38.3%
same,Activity,[2],42.2%
OC(Cn1cncn1)(Cn1cncn1)c1ccc(F)cc1F [FLUCONAZOLE],MIC,[9],75 µg/mL
same,Activity,[10],7.18 U/mg
same,Activity,[3],28.2%
same,Activity,[11],Active
same,MIC,[12],50 µg/mL
same,MIC,[13],50 µg/mL
same,MIC,[14],50 µg/mL
same,MIC,[15],50 µg/mL
same,"viability at 48 h, 50 ug/ml",[16],25%
same,"viability at 48 h, 100 ug/ml",[17],18.8%
same,"viability at 48 h, 150 ug/ml",[18],15.5%
same,Activity,[4],72.6%
same,MIC,[19],50 µg/mL
same,MIC,[20],75 µg/mL
same,Activity,[21],0 U/mg
same,MIC,[22],50 µg/mL
same,Activity,[23],Active
same,Activity,[24],Active
same,Activity,[5],4.8%
same,"viability at 48 h, 25 ug/ml",[25],98.2%
same,"viability at 48 h, 200 ug/ml",[26],15.7%
same,Activity,[27],12.8 U/mg
same,Activity,[28],1.25 U/mg
same,MIC,[29],75 µg/mL
same,Activity,[30],Active
same,MIC,[31],150 µg/mL
same,Activity,[32],2.49 U/mg
same,Activity,[33],Active
same,MIC,[34],50 µg/mL
same,Activity,[6],30.4%
same,MIC,[35],50 µg/mL
same,Activity,[7],6.7%
same,MIC,[36],> 150 µg/mL
same,MIC,[37],75 µg/mL
same,Activity,[38],Active
same,MIC,[39],50 µg/mL
same,Activity,[8],83.3%
same,Activity,[40],Active
same,MIC,[41],75 µg/mL
same,Activity,[42],Active
COc1ccc(-c2cc(Oc3ccccc3)c3ccccc3n2)cc1OC,Activity,[1],98.2%
same,Activity,[2],98.1%
Clc1ccc(-c2cc(Oc3ccccc3)c3ccccc3n2)cc1,Activity,[1],32.3%
same,Activity,[2],36.1%
O=[N+]([O-])c1ccc(Oc2cc(-c3ccc(Cl)c(Cl)c3)nc3ccccc23)cc1,Activity,[1],85.9%
same,Activity,[2],83.9%
Fc1ccc(-c2cc(Oc3ccccc3)c3ccccc3n2)cc1,Activity,[1],38.6%
same,Activity,[2],39.8%
Fc1cc(F)cc(-c2ccc3ccccc3n2)c1,Activity,[1],59.5%
same,Activity,[2],57.5%
O=[N+]([O-])c1ccc(Oc2cc(-c3cccc(C(F)(F)F)c3)nc3ccccc23)cc1,Activity,[1],29.7%
same,Activity,[2],32.8%
O=[N+]([O-])c1ccc(Oc2cc(-c3ccccc3)nc3ccccc23)cc1,Activity,[1],98.2%
same,Activity,[2],98.1%

# Source: ChEMBL document CHEMBL5143615, “Novel 2-aryl-4-aryloxyquinoline-based fungistatics for Mucor circinelloides. Biological evaluation of activity, QSAR and docking study” (Bioorg Med Chem Lett, 2022)
